According to ChEMBL document CHEMBL1159020, “Phytotoxins of Ascochyta hyalospora, Causal Agent of Lambsquarters Leaf Spot” (1992):
Active and inactive are the calls of the source. The calls are words filed in the database; no cut-off is given here.

Tests used:
Penicillium chrysogenum [1] = assay: Antimicrobial activity against Penicillium notatum at 500 ug by antibiotic disk assay; format: functional; settings: read-out: Diameter of inhibition zone
Sorghum halepense [2] = assay: Phytotoxicity against Johnson grass assessed as leaf necrotic area at 50 ug by detached leaf assay; format: functional
Colletotrichum acutatum [3] = assay: Antimicrobial activity against Colletotrichum acutatum at 1000 ug by antibiotic disk assay; format: functional; settings: read-out: Diameter of inhibition zone
Nasturtium officinale [4] = assay: Phytotoxicity against watercress assessed as leaf necrotic area at 50 ug by detached leaf assay; format: functional
Escherichia coli [5] = assay: Antimicrobial activity against Escherichia coli at 1000 ug by antibiotic disk assay; format: functional; settings: read-out: Diameter of inhibition zone
Ipomoea [6] = assay: Phytotoxicity against Ipomoea sp. assessed as leaf necrotic area at 25 ug by detached leaf assay; format: functional
Datura stramonium [7] = assay: Phytotoxicity against Jimsonweed assessed as leaf necrotic area at 100 ug by detached leaf assay; format: functional
Senna obtusifolia [8] = assay: Phytotoxicity against Sicklepod assessed as leaf necrotic area at 50 ug by detached leaf assay; format: functional
Ipomoea [9] = assay: Phytotoxicity against Ipomoea sp. assessed as leaf necrotic area at 50 ug by detached leaf assay; format: functional
Chenopodium album [10] = assay: Phytotoxicity against Lamb's quarters assessed as electrolyte leakage at 500 to 1000 ug/ml; format: functional, organism-based
Sorghum halepense [11] = assay: Phytotoxicity against Johnson grass assessed as leaf necrotic area at 100 ug by detached leaf assay; format: functional
Chenopodium album [12] = assay: Phytotoxicity against Lamb's quarters assessed as leaf necrotic area at 25 ug by detached leaf assay; format: functional
Poa nemoralis [13] = assay: Phytotoxicity against bent grass assessed as leaf necrotic area at 25 ug by detached leaf assay; format: functional
Ipomoea [14] = assay: Phytotoxicity against Ipomoea sp. assessed as leaf necrotic area at 100 ug by detached leaf assay; format: functional
Aspergillus flavus [15] = assay: Antimicrobial activity against Aspergillus flavus at 500 ug by antibiotic disk assay; format: functional; settings: read-out: Diameter of inhibition zone
[16] = test system: Agrobacterium tumefaciens; assay: Antimicrobial activity against Agrobacterium tumefaciens at 1000 ug by antibiotic disk assay; format: functional; settings: read-out: Diameter of inhibition zone
Sorghum bicolor [17] = assay: Phytotoxicity against Sorghum bicolor assessed as leaf necrotic area at 100 ug by detached leaf assay; format: functional
[18] = test system: Curtobacterium flaccumfaciens; assay: Antimicrobial activity against Corynebacterium flaccumfaciens at 1000 ug by antibiotic disk assay; format: functional; settings: read-out: Diameter of inhibition zone
Chenopodium album [19] = assay: Phytotoxicity against Lamb's quarters assessed as leaf necrotic area at 50 ug by detached leaf assay; format: functional
[20] = test system: Agrobacterium tumefaciens; assay: Antimicrobial activity against Agrobacterium tumefaciens at 500 ug by antibiotic disk assay; format: functional; settings: read-out: Diameter of inhibition zone
Sida spinosa [21] = assay: Phytotoxicity against Prickly sida assessed as leaf necrotic area at 50 ug by detached leaf assay; format: functional
Colletotrichum acutatum [22] = assay: Antimicrobial activity against Colletotrichum acutatum at 500 ug by antibiotic disk assay; format: functional; settings: read-out: Diameter of inhibition zone
Aspergillus flavus [23] = assay: Antimicrobial activity against Aspergillus flavus at 1000 ug by antibiotic disk assay; format: functional; settings: read-out: Diameter of inhibition zone
Ambrosia artemisiifolia [24] = assay: Phytotoxicity against rag weed assessed as leaf necrotic area at 25 ug by detached leaf assay; format: functional
Chenopodium album [25] = assay: Phytotoxicity against Lamb's quarters assessed as leaf necrotic area at 100 ug by detached leaf assay; format: functional
Nasturtium officinale [26] = assay: Phytotoxicity against watercress assessed as leaf necrotic area at 25 ug by detached leaf assay; format: functional
[27] = test system: Pectobacterium carotovorum; assay: Antimicrobial activity against Erwinia carotovora at 1000 ug by antibiotic disk assay; format: functional; settings: read-out: Diameter of inhibition zone
Sida spinosa [28] = assay: Phytotoxicity against Prickly sida assessed as leaf necrotic area at 100 ug by detached leaf assay; format: functional
Poa nemoralis [29] = assay: Phytotoxicity against bent grass assessed as leaf necrotic area at 50 ug by detached leaf assay; format: functional
Nasturtium officinale [30] = assay: Phytotoxicity against Nasturtium officinale assessed as leaf necrotic area at 100 ug by detached leaf assay; format: functional
Sorghum bicolor [31] = assay: Phytotoxicity against Sorghum bicolor assessed as inhibition of root growth at 1000 ug after 24 hrs root growth assay; format: functional, organism-based
Ambrosia artemisiifolia [32] = assay: Phytotoxicity against rag weed assessed as leaf necrotic area at 50 ug by detached leaf assay; format: functional
Sorghum bicolor [33] = assay: Phytotoxicity against Sorghum bicolor assessed as leaf necrotic area at 25 ug by detached leaf assay; format: functional
Senna obtusifolia [34] = assay: Phytotoxicity against Sicklepod assessed as leaf necrotic area at 100 ug by detached leaf assay; format: functional
Sorghum bicolor [35] = assay: Phytotoxicity against Sorghum bicolor assessed as leaf necrotic area at 50 ug by detached leaf assay; format: functional
Senna obtusifolia [36] = assay: Phytotoxicity against Sicklepod assessed as leaf necrotic area at 25 ug by detached leaf assay; format: functional
[37] = test system: Curtobacterium flaccumfaciens; assay: Antimicrobial activity against Corynebacterium flaccumfaciens at 500 ug by antibiotic disk assay; format: functional; settings: read-out: Diameter of inhibition zone
Sorghum halepense [38] = assay: Phytotoxicity against Johnson grass assessed as leaf necrotic area at 25 ug by detached leaf assay; format: functional
[39] = test system: Pectobacterium carotovorum; assay: Antimicrobial activity against Erwinia carotovora at 500 ug by antibiotic disk assay; format: functional; settings: read-out: Diameter of inhibition zone
Escherichia coli [40] = assay: Antimicrobial activity against Escherichia coli at 500 ug by antibiotic disk assay; format: functional; settings: read-out: Diameter of inhibition zone
Sida spinosa [41] = assay: Phytotoxicity against Prickly sida assessed as leaf necrotic area at 25 ug by detached leaf assay; format: functional
Ambrosia artemisiifolia [42] = assay: Phytotoxicity against rag weed assessed as leaf necrotic area at 100 ug by detached leaf assay; format: functional
Datura stramonium [43] = assay: Phytotoxicity against Jimsonweed assessed as leaf necrotic area at 25 ug by detached leaf assay; format: functional
Datura stramonium [44] = assay: Phytotoxicity against Jimsonweed assessed as leaf necrotic area at 50 ug by detached leaf assay; format: functional
Penicillium chrysogenum [45] = assay: Antimicrobial activity against Penicillium notatum at 1000 ug by antibiotic disk assay; format: functional; settings: read-out: Diameter of inhibition zone
Poa nemoralis [46] = assay: Phytotoxicity against bent grass assessed as leaf necrotic area at 10 ug by detached leaf assay; format: functional
Senna obtusifolia [47] = assay: Phytotoxicity against Sicklepod assessed as leaf necrotic area at 10 ug by detached leaf assay; format: functional
Sorghum halepense [48] = assay: Phytotoxicity against Johnson grass assessed as leaf necrotic area at 10 ug by detached leaf assay; format: functional
Ambrosia artemisiifolia [49] = assay: Phytotoxicity against rag weed assessed as leaf necrotic area at 10 ug by detached leaf assay; format: functional
Ipomoea [50] = assay: Phytotoxicity against Ipomoea sp. assessed as leaf necrotic area at 10 ug by detached leaf assay; format: functional
Nasturtium officinale [51] = assay: Phytotoxicity against watercress assessed as leaf necrotic area at 10 ug by detached leaf assay; format: functional
Sorghum bicolor [52] = assay: Phytotoxicity against Sorghum bicolor assessed as leaf necrotic area at 10 ug by detached leaf assay; format: functional
Sida spinosa [53] = assay: Phytotoxicity against Prickly sida assessed as leaf necrotic area at 10 ug by detached leaf assay; format: functional
Datura stramonium [54] = assay: Phytotoxicity against Jimsonweed assessed as leaf necrotic area at 10 ug by detached leaf assay; format: functional
Chenopodium album [55] = assay: Phytotoxicity against Lamb's quarters assessed as leaf necrotic area at 10 ug by detached leaf assay; format: functional

## CCC(C)c1occ2c(=O)c(C(=O)O)c(O)cc-2c1C (configuration not stated) [ASCOCHYTINE]
Penicillium chrysogenum [1]
  zone of inhibition at 500 µg/disc: 0 mm
Sorghum halepense [2]
  Activity: 10 mm2
Colletotrichum acutatum [3]
  zone of inhibition at 1000 µg/disc: 20 mm
Nasturtium officinale [4]
  Activity: 5 mm2
Escherichia coli [5]
  zone of inhibition at 1000 µg/disc: 10 mm
Ipomoea [6]
  Activity: 8 mm2
Datura stramonium [7]
  Activity: 22 mm2
Senna obtusifolia [8]
  Activity: 13 mm2
Ipomoea [9]
  Activity: 9 mm2
Chenopodium album [10]
  Activity: Active
Sorghum halepense [11]
  Activity: 24 mm2
Chenopodium album [12]
  Activity: 5 mm2
Poa nemoralis [13]
  Activity: 7 mm2
Ipomoea [14]
  Activity: 9 mm2
Aspergillus flavus [15]
  zone of inhibition at 500 µg/disc: 0 mm
[16]
  zone of inhibition at 1000 µg/disc: 35 mm
Sorghum bicolor [17]
  Activity: 28 mm2
[18]
  zone of inhibition at 1000 µg/disc: 42 mm
Chenopodium album [19]
  Activity: 11 mm2
[20]
  zone of inhibition at 500 µg/disc: 26 mm
Sida spinosa [21]
  Activity: 20 mm2
Colletotrichum acutatum [22]
  zone of inhibition at 500 µg/disc: 18 mm
Aspergillus flavus [23]
  zone of inhibition at 1000 µg/disc: 0 mm
Ambrosia artemisiifolia [24]
  Activity: 5 mm2
Chenopodium album [25]
  Activity: 19 mm2
Nasturtium officinale [26]
  Activity: 2 mm2
[27]
  zone of inhibition at 1000 µg/disc: 0 mm
Sida spinosa [28]
  Activity: 35 mm2
Poa nemoralis [29]
  Activity: 8 mm2
Nasturtium officinale [30]
  Activity: 20 mm2
Sorghum bicolor [31]
  Activity: Active
Ambrosia artemisiifolia [32]
  Activity: 5 mm2
Sorghum bicolor [33]
  Activity: 12 mm2
Senna obtusifolia [34]
  Activity: 16 mm2
Sorghum bicolor [35]
  Activity: 18 mm2
Senna obtusifolia [36]
  Activity: 9 mm2
[37]
  zone of inhibition at 500 µg/disc: 30 mm
Sorghum halepense [38]
  Activity: 10 mm2
[39]
  zone of inhibition at 500 µg/disc: 0 mm
Escherichia coli [40]
  zone of inhibition at 500 µg/disc: 8 mm
Sida spinosa [41]
  Activity: 6 mm2
Ambrosia artemisiifolia [42]
  Activity: 8 mm2
Datura stramonium [43]
  Activity: 11 mm2
Datura stramonium [44]
  Activity: 15 mm2
Penicillium chrysogenum [45]
  zone of inhibition at 1000 µg/disc: 10 mm

## CCC(C)c1oc(CC(C)O)cc(=O)c1C (configuration not stated) [HYALOPYRONE]
Penicillium chrysogenum [1]
  zone of inhibition at 500 µg/disc: 12 mm
Sorghum halepense [2]
  Activity: 11 mm2
Nasturtium officinale [4]
  Activity: 5 mm2
Datura stramonium [7]
  Activity: 3 mm2
Senna obtusifolia [8]
  Activity: 3 mm2
Ipomoea [9]
  Activity: 5 mm2
Sorghum halepense [11]
  Activity: 15 mm2
Ipomoea [14]
  Activity: 8 mm2
Aspergillus flavus [15]
  zone of inhibition at 500 µg/disc: 10 mm
Sorghum bicolor [17]
  Activity: 23 mm2
Chenopodium album [19]
  Activity: 4 mm2
[20]
  zone of inhibition at 500 µg/disc: 0 mm
Sida spinosa [21]
  Activity: 7 mm2
Colletotrichum acutatum [22]
  zone of inhibition at 500 µg/disc: 16 mm
Chenopodium album [25]
  Activity: 5 mm2
Sida spinosa [28]
  Activity: 13 mm2
Poa nemoralis [29]
  Activity: 6 mm2
Nasturtium officinale [30]
  Activity: 7 mm2
Ambrosia artemisiifolia [32]
  Activity: 10 mm2
Senna obtusifolia [34]
  Activity: 4 mm2
Sorghum bicolor [35]
  Activity: 18 mm2
[37]
  zone of inhibition at 500 µg/disc: 12 mm
[39]
  zone of inhibition at 500 µg/disc: 0 mm
Escherichia coli [40]
  zone of inhibition at 500 µg/disc: 0 mm
Ambrosia artemisiifolia [42]
  Activity: 18 mm2
Datura stramonium [44]
  Activity: 0 mm2

## C[C@H]1OC(=O)/C=C\C(=O)/C=C/[C@H]2O[C@@H]12 [PYRENOLIDE A]
Penicillium chrysogenum [1]
  zone of inhibition at 500 µg/disc: 16 mm
Sorghum halepense [2]
  Activity: 18 mm2
Colletotrichum acutatum [3]
  zone of inhibition at 1000 µg/disc: 32 mm
Nasturtium officinale [4]
  Activity: 1 mm2
Escherichia coli [5]
  zone of inhibition at 1000 µg/disc: 0 mm
Ipomoea [6]
  Activity: 0 mm2
Senna obtusifolia [8]
  Activity: 2 mm2
Ipomoea [9]
  Activity: 3 mm2
Chenopodium album [10]
  Activity: Active
Chenopodium album [12]
  Activity: 5 mm2
Poa nemoralis [13]
  Activity: 0 mm2
Poa nemoralis [46]
  Activity: 0 mm2
Aspergillus flavus [15]
  zone of inhibition at 500 µg/disc: 0 mm
[16]
  zone of inhibition at 1000 µg/disc: 22 mm
[18]
  zone of inhibition at 1000 µg/disc: 34 mm
Chenopodium album [19]
  Activity: 13 mm2
[20]
  zone of inhibition at 500 µg/disc: 4 mm
Sida spinosa [21]
  Activity: 4 mm2
Colletotrichum acutatum [22]
  zone of inhibition at 500 µg/disc: 21 mm
Aspergillus flavus [23]
  zone of inhibition at 1000 µg/disc: 0 mm
Ambrosia artemisiifolia [24]
  Activity: 3 mm2
Nasturtium officinale [26]
  Activity: 0 mm2
[27]
  zone of inhibition at 1000 µg/disc: 0 mm
Poa nemoralis [29]
  Activity: 0 mm2
Sorghum bicolor [31]
  Activity: Active
Senna obtusifolia [47]
  Activity: 0 mm2
Ambrosia artemisiifolia [32]
  Activity: 6 mm2
Sorghum bicolor [33]
  Activity: 8 mm2
Sorghum bicolor [35]
  Activity: 10 mm2
Sorghum halepense [48]
  Activity: 3 mm2
Ambrosia artemisiifolia [49]
  Activity: 0 mm2
Ipomoea [50]
  Activity: 0 mm2
Senna obtusifolia [36]
  Activity: 0 mm2
[37]
  zone of inhibition at 500 µg/disc: 22 mm
Nasturtium officinale [51]
  Activity: 0 mm2
Sorghum bicolor [52]
  Activity: 2 mm2
Sorghum halepense [38]
  Activity: 7 mm2
[39]
  zone of inhibition at 500 µg/disc: 0 mm
Escherichia coli [40]
  zone of inhibition at 500 µg/disc: 0 mm
Sida spinosa [41]
  Activity: 0 mm2
Sida spinosa [53]
  Activity: 0 mm2
Datura stramonium [54]
  Activity: 0 mm2
Datura stramonium [43]
  Activity: 0 mm2
Chenopodium album [55]
  Activity: 2 mm2
Datura stramonium [44]
  Activity: 2 mm2
Penicillium chrysogenum [45]
  zone of inhibition at 1000 µg/disc: 22 mm
